One test is filed under the species Rattus norvegicus. The experiment in a line: Displacement of [35S]TBPS from GABAA receptor in rat cerebellum at 10 uM to 1 nM after 60 mins. It counts as tissue-based. (Loss of bound radioactivity is the signal in a displacement assay; it reports binding, not function.)
The nature of test [1]: Displacement of [35S]TBPS from GABAA receptor in rat cerebellum after 60 mins. Type of test: tissue-based.

This is an account of results in ChEMBL document CHEMBL1177881, “Synthesis and GABAA receptor activity of A-homo analogues of neuroactive steroids” (Eur J Med Chem, 2010).

Broadly, the IC50 is the concentration needed to halve the response being measured. A lower IC50 goes with greater potency. In the test filed under Rattus norvegicus, `CC(=O)[C@H]1CC[C@H]2[C@@H]3CC[C@H]4C[C@H](O)CC[C@]4(C)[C@H]3CC[C@]12C` [BREXANOLONE] displayed an Imax of 79.6%. This compound displayed an IC50 in test [1] of 80 nM.
The like results for `CC(=O)[C@H]1CC[C@H]2[C@@H]3CC=C4CC[C@@H](O)CC[C@]4(C)[C@H]3CC[C@]12C` were, in that order, 50% and 100 nM.
In the same order, the values of `CC(=O)[C@H]1CC[C@H]2[C@@H]3CC[C@H]4CC[C@@H](O)CC[C@]4(C)[C@H]3CC[C@]12C` are 46.2% and 1000 nM.
In the same order, the values of `CC(=O)[C@H]1CC[C@H]2[C@@H]3CC=C4C[C@H](O)CCC[C@]4(C)[C@H]3CC[C@]12C` are 50.7% and 800 nM.
Regarding `CC(=O)[C@H]1CC[C@H]2[C@@H]3CC=C4CC[C@H](O)CC[C@]4(C)[C@H]3CC[C@]12C`, the Imax in the test listed under Rattus norvegicus was found to be 75.6%. Moreover, the half-inhibitory concentration (IC50) in test [1] was found to be 1200 nM.
